In publication PMC4995692, “An assay to measure poly(ADP ribose) glycohydrolase (PARG) activity in cells” (F1000Research, 2016):
“Also recorded” adds a separate entry of the source. Blank lines part the entries; values can stand above or below the molecule they belong to.

How the values were obtained:
[1] = biological target: PARG (Homo sapiens, UniProt Q86W56); experiment: PAR chain assay in SW620 cells with temozolomide; format: cell-based
[2] = test system: SW620 cells; experiment: SW620 proliferation after MMS (Hoechst stain); format: cell-based, human; settings: MMS 72 h
[3] = test system: Murine embryonic fibroblasts (MEFs); experiment: SRB assay, MMS sensitivity of MEFs; format: cell-based; settings: Mus musculus, Fibroblast, 72 h
Procedure: (§1) Cells in 96-well plates were fixed with the addition of 100 µL ice cold 10% trichloroacetic acid to the media. After 1 h at 4°C, the cells were washed twice with PBS and left to dry. Once dry, 100 µL 0.2% sulforhodamine B (SRB) was add to each well and incubated for 15 min at room temperature. The cells were washed three times with 200 µL 1% acetic acid and then dried. To solubilise the remaining SRB, 200 µL 10 mM Tris pH10.5 was added to each well and the plate incubated with agitation for 10 min. Absorbance at 520 nm was measured on a plate reader (Biotek, Swindon, UK).

[4] = test system: nuclear PAR chains in Hela cells; format: cell-based, human; settings: 250 µg/mL MMS
Procedure: Exponentially growing HeLa cells were trypsinized and resuspended in complete media before being filtered through a […] cell strainer (#352340, BD Falcon, Oxford, UK). Cells were then counted using a Muse cell counter (Merck Millipore, Hertfordshire, UK) and seeded in 30 µL of media at 4×10 ^4 cells/mL in Greiner 384-well plates (#781091, Greiner Bio-One, Stonehouse, UK) and placed in a cell culture incubator. After 16–24 h the plates were centrifuged briefly at 164× g and the cells dosed with compound(s) or vehicle (DMSO) control using an Echo 550 (Labcyte, Dublin, Ireland). […] After 1 h the plate was re-spun and cells co-dosed with different concentrations of MMS (50–250 µg/mL final concentration) or DMSO using the Echo 550 and incubated for a given time (30 min–2 h) at 37°C in a cell culture incubator. […] Following three washes with PBS, the plates were sealed and images captured using a 10× objective on a CellInsight (ThermoFisher) and analysed using Cellomics Scan compartmental analysis software (ThermoFisher). A threshold determined by assessing the signal in DMSO treated cells was applied to the pixel intensity and a Box Detection application was used to detect objects smaller than five pixels in radius within the nucleus. […]

[5] = test system: H1048 cells; experiment: SRB assay, MMS sensitivity of H1048; format: cell-based; settings: Homo sapiens, NCI-H1048, 72 h
Procedure: as §1

[6] = test system: PAR chains in PARG KD cells; experiment: PAR chain detection after MMS, preliminary western blot; format: cell-based, human; settings: 250 µg/mL MMS
[7] = test system: PARG KD Hela cells (PARG Silencix); experiment: Growth inhibition by MMS in PARG KD Hela cells; format: cell-based; settings: Homo sapiens, 120 h, 5 days
[8] = test system: control Hela cells; experiment: Growth inhibition by MMS in control Hela cells; format: cell-based; settings: Homo sapiens, 120 h, 5 days

Sequence of PARG (Q86W56 whole entry): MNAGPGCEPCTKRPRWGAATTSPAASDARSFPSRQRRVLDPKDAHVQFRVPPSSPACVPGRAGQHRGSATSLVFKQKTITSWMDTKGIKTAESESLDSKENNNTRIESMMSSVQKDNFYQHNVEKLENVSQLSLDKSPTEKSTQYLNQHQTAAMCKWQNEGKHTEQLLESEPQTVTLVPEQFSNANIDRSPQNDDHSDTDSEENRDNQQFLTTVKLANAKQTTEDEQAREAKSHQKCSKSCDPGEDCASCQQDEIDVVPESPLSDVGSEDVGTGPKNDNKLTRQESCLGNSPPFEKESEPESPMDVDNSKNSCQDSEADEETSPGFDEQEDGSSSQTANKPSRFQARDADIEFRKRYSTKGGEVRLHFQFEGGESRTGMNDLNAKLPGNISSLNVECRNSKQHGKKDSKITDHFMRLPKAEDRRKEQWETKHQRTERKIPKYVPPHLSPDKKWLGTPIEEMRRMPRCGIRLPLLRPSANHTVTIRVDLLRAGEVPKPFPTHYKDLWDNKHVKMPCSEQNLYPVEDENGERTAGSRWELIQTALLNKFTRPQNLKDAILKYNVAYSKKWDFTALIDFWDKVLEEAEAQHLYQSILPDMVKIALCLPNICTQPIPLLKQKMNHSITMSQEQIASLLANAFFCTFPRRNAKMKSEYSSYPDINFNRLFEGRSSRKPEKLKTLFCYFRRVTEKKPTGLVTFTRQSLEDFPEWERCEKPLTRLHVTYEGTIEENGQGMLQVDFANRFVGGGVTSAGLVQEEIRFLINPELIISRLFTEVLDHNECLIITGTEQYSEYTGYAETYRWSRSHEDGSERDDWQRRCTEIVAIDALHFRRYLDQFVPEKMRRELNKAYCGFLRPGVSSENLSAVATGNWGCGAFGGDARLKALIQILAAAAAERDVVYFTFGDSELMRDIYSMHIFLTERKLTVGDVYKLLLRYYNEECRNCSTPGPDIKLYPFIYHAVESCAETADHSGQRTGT

- PAR signal ([1]; pre-treated at 300 nM, 1 h temozolomide 1.5-200 µg/mL): no effect
SMILES: O=C(c1cc(Cc2n[nH]c(=O)c3ccccc23)ccc1F)N1CCN(C(=O)C2CC2)CC1 [olaparib]
- PAR signal ([1]; increasing concentrations of compound, 150 µg/mL temozolomide for 1 h): did not lead to any increase; also recorded: no effect

SMILES: COS(C)(=O)=O [MMS, Methylmethanesulfonate]
- proliferation [2]: dose-dependent decrease
- IC50 [3]: 14.5 µM
- time of maximum nuclear PAR signal [4]: 25 min
- IC50 [5]: 9 µM
- time of peak of PAR chains after MMS addition [6]: approximately 20 min
- IC50 [7]: 6.2 µg/mL
- IC50 [8]: 16.5 µg/mL

- PAR signal ([1]; one hour after TMZ alone): no PAR signal detectable
SMILES: Cn1nnc2c(C(N)=O)ncn2c1=O [TMZ, Temozolomide]
